In US20030125337A1, “Inhibitors of multidrug transporters” (priority 1998, published 2003):
In brackets after ≈: the same amount, converted by molar mass. Like-named read-outs stand apart in the source and are kept apart here.

Legend:
[1] = biological target: T1, NorA (Staphylococcus aureus, UniProt P0A0J7); format: cell-based; settings: FIG. 8; reserpine 20 μg/ml, INF 55, 240, 271, 392 5 μg/ml, INF 277 10 μg/ml
T1 construct: expressed in transfected cells; host or cells: Bacillus subtilis strain NA
Description: Effect of the lead inhibitors on ethidium efflux from NA cells. NA cells were loaded with ethidium in the presence of reserpine and allowed to efflux in the absence of reserpine (A) in the presence of 20 μg/ml reserpine (B), 5 μg/ml of INF 55 (C), 5 μg/ml of INF 240 (D), 5 μg/ml of INF 271 (E), 5 μg/ml of INF 392 (F), or 10 μg/ml of INF 277 (G). Fluorescence intensity is proportional to the amount of ethidium remaining inside the cells.
NA cells overexpressing NorA were loaded with ethidium bromide in the presence of reserpine (20 μg/ml). After washing, cells were placed in a fluorimeter cuvette with fresh medium.

[2] = test system: wild type S. aureus SA1199; format: cell-based; settings: INF inhibitors 5 μg/ml, reserpine 20 μg/ml; for Fold inhibition of emergence of resistance: ciprofloxacin resistance, SA1199
Description: The effect of the inhibitors on the rate of emergence of in vitro selected single-step ciprofloxacin resistant mutants of wild type S. aureus SA1199 (Kaatz et al., 1990) was determined.
Ciprofloxacin resistance in first step in vitro selected mutants of S. aureus is predominantly due to specific point mutations in the targets of this drug, topoisomerase IV and gyrase (Cambau and Gutman, 1993; Ferrero et al., 1994).

[3] = test system: NorA-overexpressing S. aureus, SA1199B; assay: Frequency of emergence of SA1199B mutants insensitive to the NorA inhibitor (adaptation of NorA); format: cell-based; settings: mutagenized SA1199B, ethidium bromide 10 μg/ml, INF inhibitors 5 μg/ml, reserpine 20 μg/ml, 48 h
Description: To evaluate the possibility of such mutations arising in the NorA transporter the inventors determined the frequency of emergence of mutants of NorA-overexpressing S. aureus, SA1199B, that retained resistance to a NorA substrate in spite of the presence of a NorA inhibitor. […] After a 48 h incubation period the number of colonies on each plate was determined.

[4] = test system: S. aureus (SA1199B); assay: Minimal inhibitor concentration decreasing the ciprofloxacin MIC two fold, S. aureus SA1199B; format: cell-based; settings: Staphylococcus aureus, read-out: Effectivity IC50* S. Aureus
[5] = test system: S. pneumoniae (SPC2A); assay: Minimal inhibitor concentration decreasing the ciprofloxacin MIC two fold, S. pneumoniae SPC2A; format: cell-based; settings: Streptococcus pneumoniae; SPC2A; minimal concentration required to decrease the MIC for ciprofloxacin by two fold; N.A. = not active at 5 μg/ml; read-out: IC50 S. Pneumoniae
[6] = biological target: T1, NorA; settings: reference for CoMFA predictions; cited from earlier work
[7] = test system: first step mutants of S. pneumoniae (ATCC 49619); settings: three first step mutants, non-toxic concentration
[8] = biological target: Bmr (Bacillus subtilis, UniProt P33449); settings: cited from earlier work
[9] = biological target: T1, NorA; settings: cited from earlier work
[10] = test system: B. subtilis; settings: inhibition of the Bmr transporter; cited from earlier work
[11] = test system: wild-type S. aureus; settings: cited from earlier work
[12] = test system: S. pneumoniae; settings: cited from earlier work
[13] = test system: E. faecalis; settings: cited from earlier work
[14] = S. pneumoniae strain EBR, non-toxic concentrations

T1 sequence (P0A0J7 whole entry): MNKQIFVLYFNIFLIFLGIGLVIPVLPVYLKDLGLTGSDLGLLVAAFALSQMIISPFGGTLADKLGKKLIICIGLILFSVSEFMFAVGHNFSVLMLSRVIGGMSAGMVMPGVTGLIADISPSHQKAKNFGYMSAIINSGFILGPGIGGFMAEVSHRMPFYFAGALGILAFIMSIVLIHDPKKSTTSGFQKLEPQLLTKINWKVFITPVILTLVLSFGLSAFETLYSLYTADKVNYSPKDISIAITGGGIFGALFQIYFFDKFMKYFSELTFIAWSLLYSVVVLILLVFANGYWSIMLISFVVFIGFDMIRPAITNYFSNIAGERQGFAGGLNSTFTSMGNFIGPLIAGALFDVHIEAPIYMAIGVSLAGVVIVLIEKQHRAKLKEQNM
Sequence of Bmr (P33449 whole entry): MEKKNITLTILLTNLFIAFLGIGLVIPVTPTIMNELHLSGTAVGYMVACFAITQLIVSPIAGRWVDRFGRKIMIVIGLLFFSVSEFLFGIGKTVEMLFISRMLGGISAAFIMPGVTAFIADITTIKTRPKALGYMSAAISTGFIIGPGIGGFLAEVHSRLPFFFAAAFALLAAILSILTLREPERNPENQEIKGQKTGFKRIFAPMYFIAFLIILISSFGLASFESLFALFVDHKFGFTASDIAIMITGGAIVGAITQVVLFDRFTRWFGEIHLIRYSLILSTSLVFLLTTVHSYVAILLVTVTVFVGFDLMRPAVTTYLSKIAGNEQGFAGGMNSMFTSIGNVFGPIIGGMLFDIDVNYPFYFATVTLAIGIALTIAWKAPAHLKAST

Compound: COC(=O)[C@H]1[C@H]2C[C@@H]3c4[nH]c5cc(OC)ccc5c4CCN3C[C@H]2C[C@@H](OC(=O)c2cc(OC)c(OC)c(OC)c2)[C@@H]1OC [Reserpine, reserpine]
- inhibition of the decrease in fluorescence due to NorA-mediated ethidium efflux [1]: dramatically inhibited
- Frequency of emergence of variants resistant to two fold the MIC of ciprofloxacin, Spontaneous ([2]; SA1199, ciprofloxacin 1 μg/ml, 48 h): <5 × 10^−11
- Frequency of emergence of variants resistant to two fold the MIC of ciprofloxacin, Mutagenized ([2]; SA1199 mutagenized with ethylmethane sulfonate): <2.5 × 10^−10
- Fold inhibition of emergence of resistance [2]: >50
- Fold inhibition of emergence of resistance ([2]; listed as reserpine): more than one order of magnitude
- Frequency of adaptation of NorA (mutants insensitive to the inhibitor) [3]: approximately 2×10^−8
- IC50 [4]: 6.25 µg/mL (≈ 10.3 µM)
- IC50 [5]: 5 µg/mL (≈ 8.21 µM)
- concentration at which known to be active [6]: 5 µg/mL
- reversal of resistance to ciprofloxacin and ethidium bromide [7]: reversed the resistance
- inhibition of drug efflux mediated by Bmr [8]: completely inhibited
- inhibition of drug efflux mediated by NorA [9]: completely inhibited
- reduction of the MIC of norfloxacin [10]: by a factor of five
- reduction of the MIC of norfloxacin [11]: at least four-fold
- inhibition of ethidium efflux [12, 14]: inhibited ethidium efflux
- reversal of resistance to ethidium and fluoroquinolones [12, 14]: reversed the resistance
- potentiation of susceptibility to ethidium and fluoroquinolones ([12]; wild type S. pneumoniae): two to three fold
- factor of reduction of the MIC of norfloxacin and ciprofloxacin ([12]; wild-type S. pneumoniae): 2-3
- increase in susceptibility to fluoroquinolones [13]: two-fold increase
